Test results published in PMC4724233 (European journal of medicinal chemistry, 2015).

Columns and labels:
GST-hCAR-LBD = target: T1, GST-hCAR-LBD (Homo sapiens, UniProt Q14994); assay: CAR-mediated fluorescent PGC1α coactivator recruitment/repression assay; details: ratio of IC50 values; for fold increase of IC50 (less potent) relative to lead chemical 11 / fold more potent than lead compound CINPA1 (11): comparator 11 (IC50 687 nM)
T1 sequence (Q14994 109-348 isoform Q14994-2 limits assumed): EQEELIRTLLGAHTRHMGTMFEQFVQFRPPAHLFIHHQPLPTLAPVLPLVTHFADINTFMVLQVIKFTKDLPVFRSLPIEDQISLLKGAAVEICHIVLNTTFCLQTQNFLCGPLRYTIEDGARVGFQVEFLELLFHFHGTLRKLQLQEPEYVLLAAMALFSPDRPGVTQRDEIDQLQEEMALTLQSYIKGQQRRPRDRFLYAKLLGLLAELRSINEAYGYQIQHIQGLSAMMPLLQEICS

CAR = details: only at very high concentrations, 20 or 40 μM; cited from earlier work
PXR [1] = details: only at very high concentrations, 20 or 40 μM; cited from earlier work
PXR [2] = details: cited from earlier work
hCAR = details: cultured human hepatocytes; cited from earlier work

Structure (SMILES)	fold increase of IC50 (less potent) relative to lead chemical 11 (GST-hCAR-LBD)	fold more potent than lead compound CINPA1 (11) (GST-hCAR-LBD)	further results
CCOC(=O)Nc1ccc2c(c1)N(C(=O)CN1CCCC1)c1ccccc1CC2 [Compound 24, Ethyl (5-(2-(pyrrolidin-1-yl)acetyl)-10,11-dihydro-5H-dibenzo[b,f]azepin-3-yl)carbamate]	more than 2 fold	–	–
CC(C)OC(=O)Nc1ccc2c(c1)N(C(=O)CCN(C)C)c1ccccc1CC2 [Compound 20]	–	–	fold increase in potency compared to chemical 18 (GST-hCAR-LBD; comparator 18): about 3 fold
CCOC(=O)Nc1ccc2c(c1)N(C(=O)CN1C(C)(C)CCCC1(C)C)c1ccccc1CC2 [Compound 26, Ethyl (5-(2-(2,2,6,6-tetramethylpiperidin-1-yl)acetyl)-10,11-dihydro-5H-dibenzo[b,f]azepin-3-yl)carbamate]	–	–	fold IC50 relative to chemical 25 (GST-hCAR-LBD; comparator 25): over 6 fold
CCOC(=O)Nc1ccc2c(c1)N(C(=O)CNC(C)(C)CC)c1ccccc1CC2 [Compound 32, Ethyl (5-(tert-pentylglycyl)-10,11-dihydro-5H-dibenzo[b,f]azepin-3-yl)carbamate]	3 fold	–	–
CCOC(=O)Nc1ccc2c(c1)N(C(=O)COC(C)(C)C)c1ccccc1CC2 [Compound 35, Ethyl (5-(2-(tert-butoxy)acetyl)-10,11-dihydro-5H-dibenzo[b,f]azepin-3-yl)carbamate]	–	9.7 fold	–
CC(C)OC(=O)Nc1ccc2c(c1)N(C(=O)Cn1cccc1)c1ccccc1CC2 [Compound 56, Isopropyl (5-(2-(1H-pyrrol-1-yl)acetyl)-10,11-dihydro-5H-dibenzo[b,f]azepin-3-yl)carbamate]	–	32.8 fold	–
CCCN(CCC)CC(=O)N1c2ccccc2CCc2ccc(NC(=O)OCC)cc21 [Compound 22, Ethyl (5-(dipropylglycyl)-10,11-dihydro-5H-dibenzo[b,f]azepin-3-yl)carbamate]	–	3 fold	–
CCOC(=O)Nc1ccc2c(c1)N(C(=O)CCN(CC)CC)c1ccccc1CC2 [Compound 33, Ethyl (5-(3-(diethylamino)propanoyl)-10,11-dihydro-5H-dibenzo[b,f]azepin-3-yl)carbamate]	3.5 fold	–	–
CCOC(=O)Nc1ccc2c(c1)N(C(=O)CN1CCOCC1)c1ccccc1CC2 [Compound 12]	–	about 3 fold	–
C=CCN=C=S [AITC, allyl isothiocyanate]	–	–	inhibitory effect against CAR (CAR): inhibitory effects against both CAR and PXR; inhibitory effect against PXR (PXR [1]): inhibitory effects against both CAR and PXR
CCOC(=O)Nc1ccc2c(c1)N(C(=O)CN1C(=O)C=CC1=O)c1ccccc1CC2 [Compound 28, Ethyl (5-(2-(2,5-dioxo-2,5-dihydro-1H-pyrrol-1-yl)acetyl)-10,11-dihydro-5H-dibenzo[b,f]azepin-3-yl)carbamate]	–	–	fold IC50 relative to chemical 24 (GST-hCAR-LBD; comparator 24, less active): 25 fold
CCOC(=O)Nc1ccc2c(c1)N(C(=O)CN(CC)CC)c1ccccc1CC2 [Compound 11, ethyl (5-(diethylglycyl)-10,11-dihydro-5H-dibenzo[b,f]azepin-3-yl)carbamate]	–	–	PXR activation (PXR [2]): does not activate PXR
CCOC(=O)Nc1ccc2c(c1)N(C(=O)CNC(C)(C)C)c1ccccc1CC2 [Compound 16]	5 fold	–	–
CCN(CC)CC(=O)N1c2ccccc2CCc2ccc(Nc3nnc(C)o3)cc21 [Compound 44, 2-(Diethylamino)-1-(3-((5-methyl-1,3,4-oxadiazol-2-yl)amino)-10,11-dihydro-5H-dibenzo[b,f]azepin-5-yl)ethan-1-one]	about 3.4 fold	–	–
O=C(Nc1ccc2c(c1)N(C(=O)Cn1cccc1)c1ccccc1CC2)OC1CCCCC1 [Compound 72, Cyclohexyl (5-(2-(1H-pyrrol-1-yl)acetyl)-10,11-dihydro-5H-dibenzo[b,f]azepin-3-yl)carbamate]	–	about 59 fold	–
Cc1cccc(CN2CCN(C(c3ccccc3)c3ccc(Cl)cc3)CC2)c1 (stereo not shown) [Meclizine]	–	–	hCAR inverse agonist or antagonist effect (hCAR): failed to act as an effective hCAR inverse agonist or antagonist
CCOC(=O)Nc1ccc2c(c1)N(C(=O)Cn1ccnc1)c1ccccc1CC2 [Compound 30, Ethyl (5-(2-(1H-imidazol-1-yl)acetyl)-10,11-dihydro-5H-dibenzo[b,f]azepin-3-yl)carbamate]	–	–	fold IC50 relative to chemical 29 (GST-hCAR-LBD; comparator 29, loss of activity): 186 fold
CCOC(=O)Nc1ccc2c(c1)N(C(=O)CN(C(C)C)C(C)C)c1ccccc1CC2 [Compound 23, Ethyl (5-(diisopropylglycyl)-10,11-dihydro-5H-dibenzo[b,f]azepin-3-yl)carbamate]	more than 4 fold	–	–
CCOC(=O)Nc1ccc2c(c1)N(C(=O)CN1CCN(C)CC1)c1ccccc1CC2 [Compound 13]	56 fold	–	–
CCOC(=O)Nc1ccc2c(c1)N(C(=O)Cn1cccc1)c1ccccc1CC2 [Compound 29, Ethyl (5-(2-(1H-pyrrol-1-yl)acetyl)-10,11-dihydro-5H-dibenzo[b,f]azepin-3-yl)carbamate]	–	19 fold	fold more potent than chemical 24 (GST-hCAR-LBD; comparator 24): 43 fold
